The supplement of paper PMC12282887
± gives the standard deviation of the averaged measurements.

What was measured:
Experiment in all cases: fitness (OD AUC treated / untreated) (fraction); higher = more growth
[1] = system: E. coli BW25113 Drob + rob
Experimental: (§1)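 MIC curves of ciprofloxacin or amoxicillin, with or without 55.5 µg/ml caffeine, against E. coli BW25113 wild type, deletion mutants (ΔmicF, ΔompF, Δrob) and complemented strains. Assays ran in LB at 37°C in 96/384-well plates. Fitness is the OD600 AUC over 8 h divided by the no-drug control; 3-4 biological replicates.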

E. coli BW25113 Drob = system: E. coli BW25113 Drob
Experimental: as §1

E. coli BW25113 WT = system: E. coli BW25113 WT
Experimental: as §1

[2] = system: E. coli BW25113 DompF + ompF
Experimental: as §1

[3] = system: E. coli BW25113 DmicF + micF
Experimental: as §1

E. coli BW25113 DmicF = system: E. coli BW25113 DmicF
Experimental: as §1

CC1(C)S[C@@H]2[C@H](NC(=O)[C@H](N)c3ccc(O)cc3)C(=O)N2[C@H]1C(=O)O [Amoxicillin]
fitness
Conditions | E. coli BW25113 Drob | E. coli BW25113 WT | [1]
antibiotic concentration 0.72727 µg/ml, caffeine concentration 0 µg/ml | 1.06 ± 0.015 | 1.02 ± 0.014 | 1.04 ± 0.036
antibiotic concentration 0.72727 µg/ml, caffeine concentration 55.4857 µg/ml | 0.954 ± 0.021 | 0.986 ± 0.013 | 0.988 ± 0.012
antibiotic concentration 1.45455 µg/ml, caffeine concentration 0 µg/ml | 1.067 ± 0.0029 | 1.03 ± 0.018 | 1.098 ± 0.0075
antibiotic concentration 1.45455 µg/ml, caffeine concentration 55.4857 µg/ml | 0.96 ± 0.021 | 0.995 ± 0.082 | 1.013 ± 0.0045
antibiotic concentration 2.18182 µg/ml, caffeine concentration 0 µg/ml | 0.956 ± 0.024 | 1.01 ± 0.031 | 1.06 ± 0.026
antibiotic concentration 2.18182 µg/ml, caffeine concentration 55.4857 µg/ml | 0.8209 ± 0.0065 | 1.02 ± 0.045 | 1 ± 0.017
antibiotic concentration 2.90909 µg/ml, caffeine concentration 0 µg/ml | 0.233 ± 0.018 | 0.791 ± 0.02 | 0.381 ± 0.036
antibiotic concentration 2.90909 µg/ml, caffeine concentration 55.4857 µg/ml | 0.207 ± 0.016 | 1.07 ± 0.13 | 0.976 ± 0.034
antibiotic concentration 3.63636 µg/ml, caffeine concentration 0 µg/ml | 0.107 ± 0.015 | 0.246 ± 0.012 | 0.156 ± 0.015
antibiotic concentration 3.63636 µg/ml, caffeine concentration 55.4857 µg/ml | 0.0967 ± 0.0076 | 0.971 ± 0.088 | 0.653 ± 0.068
antibiotic concentration 4.36364 µg/ml, caffeine concentration 0 µg/ml | 0.0398 ± 0.0077 | 0.114 ± 0.0036 | 0.0865 ± 0.009
antibiotic concentration 4.36364 µg/ml, caffeine concentration 55.4857 µg/ml | 0.0126 ± 0.0074 | 0.637 ± 0.099 | 0.219 ± 0.036
antibiotic concentration 5.09091 µg/ml, caffeine concentration 0 µg/ml | 4.88e-05 ± 8.5e-05 | 0.0723 ± 0.0046 | 0.0167 ± 0.015
antibiotic concentration 5.09091 µg/ml, caffeine concentration 55.4857 µg/ml | 0.000488 ± 0.00085 | 0.251 ± 0.04 | 0.113 ± 0.022
antibiotic concentration 5.81818 µg/ml, caffeine concentration 0 µg/ml | 0 | 0.0283 ± 0.0068 | 0
antibiotic concentration 5.81818 µg/ml, caffeine concentration 55.4857 µg/ml | 0 | 0.133 ± 0.014 | 0.0601 ± 0.0084
antibiotic concentration 6.54545 µg/ml, caffeine concentration 0 µg/ml | 0 | 0 | 0
antibiotic concentration 6.54545 µg/ml, caffeine concentration 55.4857 µg/ml | 0 | 0.0838 ± 0.011 | 0.00196 ± 0.0034
antibiotic concentration 7.27273 µg/ml, caffeine concentration 0 µg/ml | 0 | 0 | 0
antibiotic concentration 7.27273 µg/ml, caffeine concentration 55.4857 µg/ml | 0.000488 ± 0.00085 | 0.0273 ± 0.014 | 0
antibiotic concentration 8 µg/ml, caffeine concentration 0 µg/ml | 0 | 0 | 0
antibiotic concentration 8 µg/ml, caffeine concentration 55.4857 µg/ml | 0 | 0.00395 ± 0.004 | 0.000108 ± 0.00019

O=C(O)c1cn(C2CC2)c2cc(N3CCNCC3)c(F)cc2c1=O [Ciprofloxacin]
fitness
Conditions | E. coli BW25113 DmicF | E. coli BW25113 Drob | E. coli BW25113 WT | [2] | [3]
antibiotic concentration 0.00227 µg/ml, caffeine concentration 0 µg/ml | 0.916 ± 0.041 | 1.07 ± 0.043 | 1.07 ± 0.11 | – | 1.05 ± 0.044
antibiotic concentration 0.00227 µg/ml, caffeine concentration 55.4857 µg/ml | 0.927 ± 0.03 | 0.883 ± 0.052 | 0.995 ± 0.045 | – | –
antibiotic concentration 0.00455 µg/ml, caffeine concentration 0 µg/ml | 0.793 ± 0.023 | 0.845 ± 0.043 | 0.987 ± 0.062 | – | 1.01 ± 0.043
antibiotic concentration 0.00455 µg/ml, caffeine concentration 55.4857 µg/ml | 0.867 ± 0.033 | 0.887 ± 0.021 | 0.986 ± 0.067 | – | –
antibiotic concentration 0.00682 µg/ml, caffeine concentration 0 µg/ml | 0.625 ± 0.049 | 0.754 ± 0.044 | 0.99 ± 0.075 | – | 0.985 ± 0.027
antibiotic concentration 0.00682 µg/ml, caffeine concentration 55.4857 µg/ml | 0.684 ± 0.07 | 0.733 ± 0.062 | 1 ± 0.084 | – | 0.99 ± 0.027
antibiotic concentration 0.00909 µg/ml, caffeine concentration 0 µg/ml | 0.435 ± 0.12 | 0.641 ± 0.057 | 0.891 ± 0.081 | – | 0.876 ± 0.037
antibiotic concentration 0.00909 µg/ml, caffeine concentration 55.4857 µg/ml | – | 0.619 ± 0.063 | 0.953 ± 0.031 | – | 0.941 ± 0.051
antibiotic concentration 0.01136 µg/ml, caffeine concentration 0 µg/ml | 0.232 ± 0.12 | 0.42 ± 0.025 | 0.766 ± 0.15 | – | 0.679 ± 0.0072
antibiotic concentration 0.01136 µg/ml, caffeine concentration 55.4857 µg/ml | – | 0.383 ± 0.061 | 0.938 ± 0.056 | – | 0.798 ± 0.041
antibiotic concentration 0.01364 µg/ml, caffeine concentration 0 µg/ml | 0.153 ± 0.11 | 0.266 ± 0.056 | 0.58 ± 0.094 | 0.748 ± 0.04 | 0.381 ± 0.018
antibiotic concentration 0.01364 µg/ml, caffeine concentration 55.4857 µg/ml | – | 0.199 ± 0.013 | 0.82 ± 0.021 | 0.89 | 0.571 ± 0.053
antibiotic concentration 0.01591 µg/ml, caffeine concentration 0 µg/ml | 0.0556 ± 0.058 | 0.143 ± 0.035 | 0.448 ± 0.045 | – | 0.154 ± 0.014
antibiotic concentration 0.01591 µg/ml, caffeine concentration 55.4857 µg/ml | – | 0.114 ± 0.013 | 0.728 ± 0.083 | – | 0.329 ± 0.049
antibiotic concentration 0.01818 µg/ml, caffeine concentration 0 µg/ml | 0.017 ± 0.029 | 0.0644 ± 0.033 | 0.304 ± 0.065 | – | 0.0704 ± 0.0051
antibiotic concentration 0.01818 µg/ml, caffeine concentration 55.4857 µg/ml | – | 0.0408 ± 0.019 | 0.607 ± 0.037 | – | 0.207 ± 0.015
antibiotic concentration 0.02045 µg/ml, caffeine concentration 0 µg/ml | 0.0088 ± 0.015 | 0.0847 ± 0.021 | 0.192 ± 0.038 | 0.541 ± 0.028 | 0.0466 ± 0.0021
antibiotic concentration 0.02045 µg/ml, caffeine concentration 55.4857 µg/ml | – | 0.0665 ± 0.016 | 0.482 ± 0.055 | 0.771 ± 0.049 | 0.119 ± 0.012
antibiotic concentration 0.02273 µg/ml, caffeine concentration 0 µg/ml | 0.00491 ± 0.0085 | 0.0851 ± 0.021 | 0.101 ± 0.078 | – | 0.045 ± 0.0053
antibiotic concentration 0.02273 µg/ml, caffeine concentration 55.4857 µg/ml | 0.00595 ± 0.0096 | 0.0576 ± 0.017 | 0.374 ± 0.08 | – | 0.0506 ± 0.013
antibiotic concentration 0.025 µg/ml, caffeine concentration 0 µg/ml | 0 | 0.0782 ± 0.018 | 0.0921 ± 0.094 | – | 0.0379 ± 0.0088
antibiotic concentration 0.025 µg/ml, caffeine concentration 55.4857 µg/ml | 0 | 0.0414 ± 0.015 | 0.276 ± 0.056 | – | 0.0446 ± 0.0058
antibiotic concentration 0.02727 µg/ml, caffeine concentration 0 µg/ml | – | – | – | 0.238 ± 0.0069 | –
antibiotic concentration 0.02727 µg/ml, caffeine concentration 55.4857 µg/ml | – | – | – | 0.558 ± 0.019 | –
antibiotic concentration 0.03409 µg/ml, caffeine concentration 0 µg/ml | – | – | – | 0.0975 ± 0.007 | –
antibiotic concentration 0.03409 µg/ml, caffeine concentration 55.4857 µg/ml | – | – | – | 0.359 ± 0.019 | –
antibiotic concentration 0.04091 µg/ml, caffeine concentration 0 µg/ml | – | – | – | 0.039 ± 0.0035 | –
antibiotic concentration 0.04091 µg/ml, caffeine concentration 55.4857 µg/ml | – | – | – | 0.194 ± 0.012 | –
antibiotic concentration 0.04773 µg/ml, caffeine concentration 0 µg/ml | – | – | – | 0.032 ± 0.0039 | –
antibiotic concentration 0.04773 µg/ml, caffeine concentration 55.4857 µg/ml | – | – | – | 0.102 ± 0.02 | –
antibiotic concentration 0.05455 µg/ml, caffeine concentration 0 µg/ml | – | – | – | 0.0267 ± 0.004 | –
antibiotic concentration 0.05455 µg/ml, caffeine concentration 55.4857 µg/ml | – | – | – | 0.0511 ± 0.0048 | –
antibiotic concentration 0.06136 µg/ml, caffeine concentration 0 µg/ml | – | – | – | 0.0262 ± 0.0018 | –
antibiotic concentration 0.06136 µg/ml, caffeine concentration 55.4857 µg/ml | – | – | – | 0.0404 ± 0.0022 | –
antibiotic concentration 0.06818 µg/ml, caffeine concentration 0 µg/ml | – | – | – | 0.0324 ± 0.0067 | –
antibiotic concentration 0.06818 µg/ml, caffeine concentration 55.4857 µg/ml | – | – | – | 0.0403 ± 0.0019 | –
antibiotic concentration 0.075 µg/ml, caffeine concentration 0 µg/ml | – | – | – | 0.0312 ± 0.0034 | –
antibiotic concentration 0.075 µg/ml, caffeine concentration 55.4857 µg/ml | – | – | – | 0.0317 ± 0.0057 | –
